Read-outs that look alike come from different tables or passages of the source.
Assays:
PDE4D2 = PDE4D2 (Homo sapiens (Human), UniProt Q08499); experiment: Effect of compounds on PDE4D2 activity (fluorescence polarization kit); format: biochemical
Experimental: FP was usually represented by mP value.
[formula] • I∥ (S520): fluorescence intensity in parallel direction • I⊥ (P520): fluorescence intensity in perpendicular direction • G: G factor=1
(§1) [formula] • mP(sample): mP of the test compound in a reaction well • mP(negative control): mP in the negative control well • mP(positive control): mP in the positive control well
According to the calculated inhibition rate at each concentration, the IC50 value of each compound was calculated by GraphPad Prism 8 software.

PDE4B1 = PDE4B1 (Homo sapiens (Human), UniProt Q07343); experiment: Effect of compounds on PDE4B1 activity (IMAP fluorescence polarization kit); format: biochemical
Sequence of PDE4B1 (Q07343 whole entry): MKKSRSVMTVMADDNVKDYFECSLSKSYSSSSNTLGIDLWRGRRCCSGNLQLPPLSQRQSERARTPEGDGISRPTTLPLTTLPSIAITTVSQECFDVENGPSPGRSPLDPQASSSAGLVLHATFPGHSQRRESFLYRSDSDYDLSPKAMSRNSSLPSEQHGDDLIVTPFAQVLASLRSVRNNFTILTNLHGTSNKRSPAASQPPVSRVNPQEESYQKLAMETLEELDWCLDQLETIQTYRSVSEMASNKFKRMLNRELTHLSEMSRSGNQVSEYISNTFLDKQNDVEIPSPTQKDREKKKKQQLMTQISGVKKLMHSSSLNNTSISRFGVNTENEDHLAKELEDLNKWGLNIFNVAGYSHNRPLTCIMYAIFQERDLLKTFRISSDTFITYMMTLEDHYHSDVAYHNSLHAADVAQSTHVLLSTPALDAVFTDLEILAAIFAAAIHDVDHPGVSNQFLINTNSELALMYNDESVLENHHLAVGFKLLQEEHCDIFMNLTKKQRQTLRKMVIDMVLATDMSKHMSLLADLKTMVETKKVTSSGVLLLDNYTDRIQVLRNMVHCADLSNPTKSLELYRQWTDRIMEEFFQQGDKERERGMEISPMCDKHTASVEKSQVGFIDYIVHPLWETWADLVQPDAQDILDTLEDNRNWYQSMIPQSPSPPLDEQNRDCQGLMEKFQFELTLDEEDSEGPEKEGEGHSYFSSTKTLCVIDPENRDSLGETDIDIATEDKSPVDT
Experimental: The effect of compounds on PDE4B1 activity was detected using a fluorescence polarization kit (IMAP FP IPP Explorer KIT, Molecular Device, Cat #R8124). The IMAP Reaction Buffer containing 0.1% BSA (5×) in the kit was diluted into a 1-fold reaction buffer containing 1 mM DTT. 0.12 nM PDE4B1 (BPS, Cat #60041) was added to the 1-fold reaction buffer to form a 2-fold enzyme solution. 10 μL of the 2-fold enzyme solution was added to wells of a 384-well reaction plate. For the negative control well, 10 μL of the 1-fold reaction buffer was used instead of the enzyme solution. Centrifugation at 1000 rpm for 1 minute and incubation at room temperature for 15 minutes were carried out. 0.2 uM FAM-labeled cAMP (FAM-cAMP, Molecular Device, Cat #R7506) was added to the 1-fold reaction buffer to form a 2-fold substrate solution. 10 μL of the 2-fold substrate solution was added to each well of the 384-well reaction plate. Centrifugation at 1000 rpm for 1 minute was carried out. A reaction was carried out at room temperature for 20 minutes. IMAP Progressive Binding Buffer A (5×), IMAP Progressive Binding Buffer B (5×), and IMAP Progressive Binding Reagent (provided by IMAP FP IPP Explorer Kit) were prepared into a reaction stop solution according to the instructions for use. 60 μL of an […] reaction stop solution was added to each well of the 384-well reaction plate to stop the reaction, and the reaction product was centrifuged at 1000 rpm for 1 minute. Incubation at room temperature in the dark for 60 minutes was carried out. The mP values (Ex480/Em535 (s), Em535 (p)) were read by a microplate reader (Envision).
FP was usually represented by mP value. mP value for FP measurement=1000*(S−G*P)/(S+G*P) • S: fluorescence intensity in parallel direction • P: fluorescence intensity in perpendicular direction • G: G factor=1
as §1
According to the calculated inhibition rate at each concentration, the IC50 value of each compound was calculated by XLFit excel add-in version 5.4.0.8 software.

PDE4B2 = PDE4B2 (Homo sapiens (Human), UniProt Q07343); experiment: Effect of compounds on PDE4B2 activity (fluorescence polarization kit)
Sequence of PDE4B2 (Q07343 other isoform, or with tags, fused parts or gaps): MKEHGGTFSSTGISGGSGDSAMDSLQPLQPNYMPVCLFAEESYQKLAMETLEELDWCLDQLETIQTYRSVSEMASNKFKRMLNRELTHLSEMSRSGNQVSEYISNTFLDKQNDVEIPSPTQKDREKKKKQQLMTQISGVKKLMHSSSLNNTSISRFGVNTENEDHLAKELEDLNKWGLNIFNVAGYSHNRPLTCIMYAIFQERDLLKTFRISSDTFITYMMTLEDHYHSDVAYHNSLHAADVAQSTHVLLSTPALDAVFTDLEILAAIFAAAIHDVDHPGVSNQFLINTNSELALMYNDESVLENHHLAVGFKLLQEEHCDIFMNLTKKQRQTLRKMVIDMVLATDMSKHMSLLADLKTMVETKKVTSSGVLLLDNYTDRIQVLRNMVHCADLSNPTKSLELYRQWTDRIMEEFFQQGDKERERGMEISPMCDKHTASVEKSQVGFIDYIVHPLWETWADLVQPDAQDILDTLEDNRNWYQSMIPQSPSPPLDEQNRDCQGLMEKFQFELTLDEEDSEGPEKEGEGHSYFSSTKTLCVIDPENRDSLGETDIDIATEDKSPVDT
Text: [formula] • I∥ (S535): fluorescence intensity in parallel direction • I⊥ (P535): fluorescence intensity in perpendicular direction • G: G factor=1

[1] = system: human peripheral blood mononuclear cells (TNF-α release); experiment: Inhibition of LPS-induced TNF-α release from human peripheral blood mononuclear cells in vitro; format: cell-based; conditions: 4 h; for IC50: read-out: Re IC50; for Emax: read-out: Max inhibition (%)
Experimental: 5. Detection of Inhibitory Activity of Compounds on the Release of Tumor Necrosis Factor-α (TNF-α) from Human Peripheral Blood Mononuclear Cells Induced by Lipopolysaccharide (LPS) In Vitro
The concentration of hPBMC cells was adjusted to 0.25×10^6 cells/mL with RPMI1640 medium and inoculated into a 96-well plate in an amount of 50000 cells per well. […] Incubation was carried out for 4 h in an incubator at 37° C. and 5% CO2. The cell supernatant was collected, and the content of TNF-α in the supernatant sample was detected by human TNF-α Elisa quantitative test kit (Sino Biological, Cat #KIT10602). The IC50 value was calculated using GraphPad Prism software.

[2] = Pharmacokinetic test in beagle dogs; format: in vivo; conditions: for half-life: read-out: T½ (converted)
Experimental: 8.1 Experimental animals: Male beagle dogs, about 8-11 kg, 6 beagle dogs/compound, purchased from Beijing Marshall Biotechnology Co., Ltd.
8.2 Experimental method: On the day of the experiment, 6 beagle dogs were randomly grouped according to their body weights. The animals were fasted with water available for 12 to 14 h one day before the administration and were fed 4 h after the administration. Administration was carried out according to Table 10.

[3] = Pharmacokinetic test in mice; format: in vivo, ICR mice; conditions: for half-life: read-out: T½ (converted)
Experimental: 6.1 Experimental animals: Male ICR mice, 20-25 g, 6 mice/compound, purchased from Chengdu Ddossy Experimental Animals Co., Ltd.
6.2 Experiment design: On the day of the experiment, 6 ICR mice were randomly grouped according to their body weights. The animals were fasted with water available for 12 to 14 h one day before the administration and were fed 4 h after the administration.

[4] = Pharmacokinetic test in rats; format: in vivo; conditions: male, SD
Experimental: 7.1 Experimental animals: Male SD rats, about 220 g, 6-8 weeks old, 6 rats/compound, purchased from Chengdu Ddossy Experimental Animals Co., Ltd.
7.2 Experiment design: On the day of the experiment, 6 SD rats were randomly grouped according to their body weights. The animals were fasted with water available for 12 to 14 h one day before the administration and were fed 4 h after the administration.

[5] = relative IC50, hPBMC, 100 ng/mL LPS
[6] = male, iv, beagle dog plasma, i.v. 1 mg/kg
[7] = male, po, beagle dog plasma, i.g. 3 mg/kg
[8] = male, ICR, iv, mouse plasma, i.v. 2.5 mg/kg
[9] = male, ICR, po, mouse plasma, i.g. 10 mg/kg
[10] = Homo sapiens, PBMC, hPBMC, 100 ng/mL LPS

Sequence of PDE4D2 (Q08499 303-809, change not shown): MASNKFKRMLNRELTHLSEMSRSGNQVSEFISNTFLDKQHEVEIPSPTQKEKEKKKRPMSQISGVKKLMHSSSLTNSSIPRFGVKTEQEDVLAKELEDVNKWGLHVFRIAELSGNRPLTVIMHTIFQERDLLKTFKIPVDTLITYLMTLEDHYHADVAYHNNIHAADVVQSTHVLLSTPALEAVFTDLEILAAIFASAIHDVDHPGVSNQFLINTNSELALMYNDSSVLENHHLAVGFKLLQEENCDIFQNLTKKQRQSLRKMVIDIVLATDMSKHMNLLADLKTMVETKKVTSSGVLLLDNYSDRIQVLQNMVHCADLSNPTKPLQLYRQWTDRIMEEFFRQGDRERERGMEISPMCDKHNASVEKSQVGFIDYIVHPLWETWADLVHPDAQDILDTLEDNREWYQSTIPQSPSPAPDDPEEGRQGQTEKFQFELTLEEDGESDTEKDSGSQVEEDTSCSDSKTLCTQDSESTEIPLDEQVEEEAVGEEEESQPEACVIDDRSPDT

SMILES: [O-][S+]1CCCc2nc(N3CCC(c4ncc(Cl)cn4)CC3)nc(NC3(CO)CCC3)c21 (centres unmarked) [Compound 3]
- IC50 (PDE4D2): < 10 nM
- IC50 (PDE4B1): < 10 nM
- IC50 (PDE4B2; read-out: PDE4B2 IC50): 10 to 50 nM

SMILES: [O-][S@@+]1CCCc2nc(N3CC=C(c4ccc(Cl)cc4)CC3)nc(NC3(CO)CCC3)c21 [Compound 8-2]
- IC50 (PDE4D2): < 10 nM
- IC50 (PDE4B1): < 10 nM

SMILES: [O-][S@@+]1CCCc2nc(N3CC=C(c4ncc(Cl)cn4)CC3)nc(NC3(CO)CCC3)c21 [Compound 9-2]
- IC50 (PDE4D2): < 10 nM
- IC50 (PDE4B1): < 10 nM
- Max inhibition (%) ([1]; hPBMC, 100 ng/mL LPS): 69.47%
- IC50 [1, 5]: 10 to 50 nM

SMILES: [O-][S@+]1CCCc2nc(N3CCC(c4ccc(Cl)cc4)CC3)nc(NC3(CO)CCC3)c21 [Compound 10-2]
- IC50 (PDE4B1): 10 to 50 nM

SMILES: [O-][S@@+]1CCCc2nc(N3CCN(c4ccc(Cl)cc4)CC3)nc(NC3(CO)CCC3)c21 [Compound 11-1]
- IC50 (PDE4D2): 10 to 50 nM
- IC50 (PDE4B1): < 10 nM

SMILES: CC(C)(COC(N)=O)Nc1nc(N2CC=C(c3ncc(Cl)cn3)CC2)nc2c1[S@+]([O-])CC2 [Compound 51]
- IC50 (PDE4D2): < 10 nM
- F ([2]; beagle dog, i.g. 3 mg/kg): 74.9 ± 11%
- AUC(0-t) [2, 6]: 4990 ± 239 ng·h/mL
- clearance [2, 6]: 3.06 ± 0.18 mL/min/kg
- half-life [2, 6]: 12.8 ± 3.8 h
- Vd ([2]; male, iv, beagle dog plasma, i.v. 1 mg/kg, read-out: Vdss): 3.08 ± 0.61 L/kg
- AUC(0-t) [2, 7]: 11200 ± 1710 ng·h/mL
- half-life [2, 7]: 16.1 ± 5.5 h
- AUC(0-t) [3, 8]: 5420 ± 926 ng·h/mL
- clearance [3, 8]: 7.81 ± 1.4 mL/min/kg
- half-life [3, 8]: 2.82 ± 0.23 h
- Vd ([3]; male, ICR, iv, mouse plasma, i.v. 2.5 mg/kg, read-out: Vdss): 1.29 ± 0.039 L/kg
- AUC(0-t) [3, 9]: 30100 ± 5360 ng·h/mL
- half-life [3, 9]: 3.33 ± 0.58 h
- F ([3]; mouse, i.g. 10 mg/kg): >98%
- IC50 ([1]; Homo sapiens, PBMC): < 10 nM
- Emax [1, 10]: 69%
- IC50 (PDE4B2): < 10 nM

SMILES: CC(C)(COC(N)=O)Nc1nc(N2CC=C(c3ncc(C4CC4)cn3)CC2)nc2c1[S@+]([O-])CC2 [Compound 84]
- IC50 (PDE4D2): < 10 nM
- IC50 ([1]; Homo sapiens, PBMC): < 10 nM
- Emax [1, 10]: 68%
- AUC(0-t) ([4]; iv, rat plasma, i.v. 2.5 mg/kg): 16500 ng·h/mL
- clearance ([4]; iv, rat plasma, i.v. 2.5 mg/kg): 2.54 ± 0.32 mL/min/kg
- Vd ([4]; iv, rat plasma, i.v. 2.5 mg/kg, read-out: Vdss): 0.324 ± 0.012 L/kg
- bioavailability ([4]; plasma, po, rat, i.g. 10 mg/kg): 78.9 ± 32%
- AUC(0-t) ([4]; po, rat plasma, i.g. 10 mg/kg): 52200 ng·h/mL
- IC50 (PDE4B2): < 10 nM

SMILES: C#Cc1ccc(C2=CCN(c3nc4c(c(NC(C)(C)COC(N)=O)n3)[S@+]([O-])CC4)CC2)nc1 [Compound 105]
- IC50 (PDE4D2): < 10 nM
- IC50 ([1]; Homo sapiens, PBMC): < 10 nM
- Emax [1, 10]: 84%
- IC50 (PDE4B2): < 10 nM

SMILES: CC(C)(COC(N)=O)Nc1nc(N2CC=C(c3ncc(N4CC[Si](C)(C)CC4)cn3)CC2)nc2c1[S@+]([O-])CC2 [Compound 106]
- IC50 (PDE4D2): 10 to 50 nM
- Max inhibition (%) ([1]; hPBMC, 100 ng/mL LPS): 98.36%
- IC50 [1, 5]: 10 to 50 nM
- IC50 (PDE4B2; read-out: PDE4B2 IC50): 10 to 50 nM

SMILES: CN1C[C@@H](Nc2nc(N3C[C@H]4CN(c5ccc6c(c5)CC6)C[C@H]4C3)nc3c2[S@@+]([O-])CC3)CCC1=O [Compound 109-4]
- IC50 (PDE4D2): < 10 nM
- Max inhibition (%) ([1]; hPBMC, 100 ng/mL LPS): 85.74%
- IC50 [1, 5]: < 10 nM
- IC50 (PDE4B2; read-out: PDE4B2 IC50): < 10 nM

SMILES: CC#Cc1cnc2c(c1)OC[C@@H]1CN(c3nc4c(c(NC(C)(C)COC(N)=O)n3)[S@+]([O-])CC4)CCN21 [Compound 112-1]
- IC50 (PDE4D2): 10 to 50 nM
- Max inhibition (%) ([1]; hPBMC, 100 ng/mL LPS): 83.76%
- IC50 [1, 5]: 10 to 50 nM
- IC50 (PDE4B2; read-out: PDE4B2 IC50): < 10 nM

SMILES: COC(=O)NCC(C)(C)Nc1nc(N2CC=C(c3ncc(C4CC4)cn3)CC2)nc2c1[S@+]([O-])CC2 [Compound 117]
- IC50 (PDE4D2): 10 to 50 nM
- IC50 ([1]; Homo sapiens, PBMC): 10 to 50 nM
- Emax [1, 10]: 86%
- IC50 (PDE4B2): 10 to 50 nM

SMILES: COC(=O)NCC(C)(C)Nc1nc(N2C[C@@H]3CC(c4ncc5c(n4)CC5)=C[C@@H]3C2)nc2c1[S@+]([O-])CC2 [Compound 139-1]
- IC50 (PDE4D2): < 10 nM
- Max inhibition (%) ([1]; hPBMC, 100 ng/mL LPS): 92.69%
- IC50 [1, 5]: < 10 nM
- IC50 (PDE4B2; read-out: PDE4B2 IC50): < 10 nM

SMILES: CC#Cc1cnc2c(c1)OC[C@@H]1CN(c3nc4c(c(NC(C)(C)CNC(=O)OC)n3)[S@+]([O-])CC4)CCN21 [Compound 140-1]
- IC50 (PDE4D2): 10 to 50 nM
- Max inhibition (%) ([1]; hPBMC, 100 ng/mL LPS): 93.38%
- IC50 [1, 5]: < 10 nM
- IC50 (PDE4B2; read-out: PDE4B2 IC50): 10 to 50 nM

SMILES: CC#Cc1cnc2c(c1)OC[C@H]1CN(c3nc4c(c(NC(C)(C)CNC(=O)OC)n3)[S@+]([O-])CC4)CCN21 [Compound 140-2]
- IC50 (PDE4D2): 50 to 100 nM
- Max inhibition (%) ([1]; hPBMC, 100 ng/mL LPS): 89.58%
- IC50 [1, 5]: 10 to 50 nM
- IC50 (PDE4B2; read-out: PDE4B2 IC50): 10 to 50 nM
